Values of other authors as cited in paper PMC8329336, “The Role of Co-Signaling Molecules in Psoriasis and Their Implications for Targeted Treatment” (Frontiers in Pharmacology, 2021).
Where two headings read alike, the source gives them in different places.

Legend:
[1] = system: p40 subunits of IL-23 and IL-12; set-up: method as in Lebwohl et al., 2015; details: through binding to the p40 subunits of IL-23 and IL-12; ref Lebwohl et al., 2015
human T cells = system: human T cells; set-up: method as in Kuschei et al., 2011; details: ref Kuschei et al., 2011
LFA-1 [2] = system: LFA-1; set-up: method as in Guttman-Yassky et al., 2008; Grönholm et al., 2016; details: ref Guttman-Yassky et al., 2008; Grönholm et al., 2016
LFA-1 [3] = details: led to withdrawal from the US market in 2009; ref Kuschei et al., 2011; Hsu and Tsai, 2020
ICAM-1 = system: ICAM-1; set-up: method as in Wen et al., 2014; Xiong et al., 2015; details: ref Wen et al., 2014; Xiong et al., 2015
CD40 = details: for Efficacy (PASI scores of psoriasis) / Adverse event: patients with psoriasis, ref Anil Kumar et al. (2018); for Efficacy (PASI scores of psoriasis): Phase I; for Adverse event: limited number of patients
[4] = Phase I, ref Papp et al. (2017)

In the case of “KHK4083: fully human monoclonal antibody against OX40”, the Adverse event (OX40; [4]) is given as “Mild or moderate chills, infusion site reactions”, the PASI scores (OX40; [4]) is given as “PASI scores↓” and the efficacy (OX40; highest dose (10 mg/ kg), patients with mild to moderate plaque psoriasis, ref Papp et al., 2017) is given as “good efficacy”. The safety and tolerability (OX40; phase I study, ref Papp et al., 2017) was “safe and well tolerated”.

For “Anti-p40: approved drug for psoriasis treatment, binds to the p40 subunits of IL-23 and IL-12”, the “IL-23A-induced IL-17A production” value [1] is listed as “inhibit”.

In the case of “Efalizumab: humanized monoclonal antibody against LFA-1”, the “co-stimulatory molecules ICOS, OX40, CD27, and 4-1BB” value (human T cells; human T cells) is given as “downregulating”, the “proliferation and cytokine production of human T cells” value (human T cells) is given as “potently inhibiting” and the “cell-surface molecules involved in T cell activation (CD3, TCR, CD4, CD8, CD28, integrin VLA-4)” value (LFA-1 [2]) is given as “downregulate”. For the same molecule, the Adverse event (LFA-1 [3]) was “Progressive multifocal leukoencephalopathy”.

For CC(C)=CCC[C@]1(C)C=Cc2c(O)c3c(c(CC=C(C)C)c2O1)O[C@]12C(=C[C@@H]4C[C@H]1C(C)(C)O[C@@]2(C/C=C(/C)C(=O)O)C4=O)C3=O [gambogic acid], the effect on psoriasis (ICAM-1) is listed as “improve” and the “expression of ICAM-1” value (ICAM-1) is listed as “inhibiting”.

In the case of CC1(C)[C@@H](O[C@H]2O[C@H](C(=O)O)[C@@H](O)[C@H](O)[C@H]2O[C@@H]2O[C@H](C(=O)O)[C@@H](O)[C@H](O)[C@H]2O)CC[C@]2(C)[C@H]3C(=O)C=C4[C@@H]5C[C@@](C)(C(=O)O)CC[C@]5(C)CC[C@@]4(C)[C@]3(C)CC[C@@H]12 [glycyrrhizin], the effect on psoriasis (ICAM-1) is listed as “improve” and the “expression of ICAM-1” value (ICAM-1) is listed as “inhibiting”.

B1: Bleselumab: fully human IgG4 monoclonal antibody (mAb) that targets CD40 (antibody, chains of the INN, looked up, V domains shown)
VH: QLQLQESGPGLLKPSETLSLTCTVSGGSISSPGYYGGWIRQPPGKGLEWIGSIYKSGSTYHNPSLKSRVTISVDTSKNQFSLKLSSVTAADTAVYYCTRPVVRYFGWFDPWGQGTLVTVSS
VL: AIQLTQSPSSLSASVGDRVTITCRASQGISSALAWYQQKPGKAPKLLIYDASNLESGVPSRFSGSGSGTDFTLTISSLQPEDFATYYCQQFNSYPTFGQGTKVEIK
For B1, the clinically malignant events (CD40; as compared to CD40L-specific mAbs, ref Anil Kumar et al., 2018) is given as “no clinically malignant events”, the “Efficacy (PASI scores of psoriasis)” value (CD40) is given as “Ineffective” and the “Efficacy (PASI scores of psoriasis)” value (CD40; listed as bleselumab) is given as “did not improve”. For the same molecule, the Adverse event (CD40) was “Transient elevations of liver transaminase enzymes” and the Adverse event (CD40; listed as bleselumab) was “transient elevations in liver transaminase enzymes”.
